From patent US20130065227A1, “METHODS OF INCREASING MACROPINOCYTOSIS IN CANCER CELLS” (priority 2010, published 2013) come the findings set out here.

{Fluor} = fluorophore: 5-carboxyfluorescein (FAM) or Alexa Fluor 488

For data set [1], the system named is DU145 cells. As to the kind of experiment: Uptake of fluorophore-labeled oligonucleotides by flow cytometry. In kind it is cell-based. Here is the method:
FIG. 1 are graphs showing that AS1411 cell internalization is an active process. Cells were plated 18 h before uptake analysis. After incubation as described, cells were washed with ice-cold PBS, incubated with 1 μg/ml 7-AAD, harvested and resuspended in 1% paraformaldehyde containing 2 μg/ml actinomycin D, then analyzed by flow cytometry. (Panel A) DU145 cells were incubated at 37° C. with fresh complete DMEM medium containing 10 μM FL-AS1411 (black line) or 10 μM FL-CRO (gray line) for the time indicated. (Panel B) DU145 cells were incubated for 2 h at 37° C. in complete or serum-free DMEM medium containing 10 μM FL-AS1411, or 10 μM FL-CRO, or no oligonucleotide. (Panel C) Various cell lines were incubated with 10 μM FL-AS1411 (black outline histogram), 10 μM FL-CRO (gray outline histogram) or without DNA (solid gray histogram) at 37° C. or 4° C. for 2 h. All experiments were repeated at least three times. Data are mean of three independent samples; bars, SE; *(p<0.05).
FIG. 2 are graphs showing that AS1411 is internalized by different endocytic mechanisms in DU145 cancer cells and in non-malignant Hs27 cells. DU145 or Hs27 cells were plated 18 h before uptake analysis. Cells were pre-treated as described with inhibitor (gray histogram) or the corresponding vehicle control (black histogram) before addition of 10 μM FL-AS1411 and incubation at 37° C. for 2 h. After incubation, cells were harvested and analyzed by flow cytometry. Pre-treatment conditions were at 37° C. with: (Panel A) 5 μM Cytochalasin D for 30 min; (Panel B) 80 μM Dynasore for 30 min; or (Panel C) 3 mM amiloride for 1 h. All experiments were repeated at least three times and representative data are shown. Solid gray histograms represent background autofluorescence of unstained cells.
DU145 cells were transfected for 48 h without siRNA (mock, M), or with 30 nM of one of three different nucleolin siRNAs (NCL1, NCL2, NCL3) or a control siRNA (scramble, S), or contransfected with 10 nM of each nucleolin siRNAs (mix). (Panel A) Cells were lysed and total cell lyses were analyzed by Western blotting using the antibodies shown. (Panel B) Cell-surface proteins from intact transfected DU145 cells were labeled covalently with membrane-impermeable biotinylating agent. Cells were lysed, then biotinylated plasma membrane proteins were captured with streptavidin-agarose beads and analyzed by blotting with anti-nucleolin antibody (upper panel). After stripping, the membrane was reprobed with antibodies for a plasma membrane marker (anti-pan Cadherin) and a nuclear marker (anti-histone 3) to confirm the fractionation. Total lysate (Lys) was used as control. (Panel C) The medium of transfected cells was replaced by fresh complete DMEM medium containing no oligonucleotide (gray dashed histogram) or 10 μM FL-CRO (gray solid line histogram) or 10 μM FL-AS1411 (black solid line histogram) and incubated at 37° C. for 2 h. After incubation, cells were harvested and analyzed by flow cytometry.
DU145 cells were plated 18 hr before uptake analysis. Cell medium was changed with fresh complete DMEM medium containing different concentrations of FL-AS1411 (black line) or FL-CRO (gray line), and incubated at 37° C. for 2 hrs. After incubation, cells were harvested and analyzed by flow cytometry.
FIG. 9 are graphs showing the effects of inhibitors on various endocytic pathways. DU145 or Hs27 cells were plated 18 hr before uptake analysis. (Panel A) DU145 cells were pre-treated with dynamin inhibitor, […] Dynasore (black histogram) or DMSO (gray histogram) for 30 min at 37° C. After pre-treatment, cells were treated with […] transferrin conjugated with Alexa Fluor 488 for 30 min at 37° C. (Panel B) DU145 and Hs27 cells were pre-treated with 3 mM amiloride (black histogram) or vehicle (serum-free medium, gray histogram) for 1 h at 37° C. After pre-treatment, FL-CRO was added at a concentration of 10 μM and incubated at 37° C. for 2 h. After incubation, cells were harvested and analyzed by FACS. […]

The test system of data set [2] is DU145 cells. Kind of data set: Confocal microscopy localization and co-localization. In kind it is cell-based. Here is the method: FIG. 3 are photographs showing that AS1411 co-localizes with the macropinocytic marker, dextran. DU145 or Hs27 cells were incubated with the reagents indicated, then washed and fixed. Nuclei were stained with DAPI (blue). The distribution of markers was visualized by confocal microscopy and fluorescent images were overlaid to determine co-localization as indicated by the yellow color. (Panel A) 10 μM AS1411 labeled with Alexa Fluor 488 (green) and 0.2 mg/ml dextran-10K, macropinocytic marker, labeled with Alexa Fluor 594 (red) for 2 h at 37° C. (Panel B) Experiments similar to those in Panel A but using FL-CRO in place of FL-AS1411. (Panel C) Cells incubated with 5 μg/ml transferrin labeled with Alexa Fluor 488 (green) and 0.2 mg/ml dextran-10K labeled with Alexa Fluor 594 (red) for 30 min at 37° C. (Panel D) DU145 cells incubated with 5 μg/ml transferrin labeled with Alexa Fluor 594 (red) and 10 μM AS1411 labeled with Alexa Fluor 488 (green) for 30 min at 37° C. Scale bars, 10 μm.
Cells (4×10^4) in fresh supplemented culture medium were plated on 18 mm diameter glass cover slips for 18 h. The media was removed and replaced with serum-free medium containing 10 μM oligodeoxynucleotide, dextran-10K, or transferrin and incubated as describe in the Description of the Drawings. After incubation, cells were washed 3 times with ice-cold PBS, fixed in 4% paraformaldehyde in PBS for 30 min at room temperature, and washed three times with PBS. After washing, the cover slips were mounted on glass slides with ProLong Antifade (Molecular Probes) according to the manufacturer's directions to inhibit photobleaching. Immunofluorescence was documented with an LSM 510 inverted confocal laser-scanning microscope (Carl Zeiss, Oberkochen, Germany) equipped with an Omnichrome argon-krypton laser. Images were obtained with a Zeiss Plan-Apo 63× oil immersion objective (1.4 NA).

As to “5′-d(GGTGGTGGTGGTTGTGGTGGTGGTGG) [AS1411]”, the “saturability of uptake (dose-response)” value in the data set with DU145 cells [1] (37° C. for 2 hrs) is reported as “did not appear to have saturable uptake”. For the same substance, in the data set on DU145 cells [2] (5 μg/ml transferrin, 10 μM AS1411 labeled with Alexa Fluor 488, 30 min at 37° C.), the co-localization with transferrin entry is given as “non-overlapping vesicles”.
Regarding “5′-Fluor-d(TTTCCTCCTCCTCCTTCTCCTCCTCCTCC) (DNA TTTCCTCCTCCTCCTTCTCCTCCTCCTCC; DNA, 5' {Fluor}, backbone and methylation of C not given here) [FL-CRO, reference compound]”, in the data set with DU145 cells [1] (10 μM, 37° C., time course), the “uptake compared with FL-AS1411” value is “consistently much lower than FL-AS1411”. The “uptake compared with FL-AS1411 (confocal microscopy)” value in the data set with DU145 cells [2] (10 μM, 2 h) was “much lower than FL-AS1411”.
